The values that follow come from PMC3458005, “Involvement of the Azotobacter vinelandii Rhodanese-Like Protein RhdA in the Glutathione Regeneration Pathway” (PLoS ONE, 2012).

The target of one series is T1, RhdA (Azotobacter vinelandii, UniProt P52197).
T1 construct: His-tagged (pQER1) from E. coli BL21[pRep4], Ni-NTA purified; cyanide-treated (sulfane sulfur-deprived); only cysteine Cys230
Kind of series: intrinsic tryptophan fluorescence titration. Type of series: binding.

The subject of series [1] is N[C@@H](CCC(=O)N[C@@H](C[S])C(=O)NCC(=O)O)C(=O)O. Kind of series: purified protein. The note with it: pH 7.4; 25.0 °C.

T1 sequence (P52197 whole entry): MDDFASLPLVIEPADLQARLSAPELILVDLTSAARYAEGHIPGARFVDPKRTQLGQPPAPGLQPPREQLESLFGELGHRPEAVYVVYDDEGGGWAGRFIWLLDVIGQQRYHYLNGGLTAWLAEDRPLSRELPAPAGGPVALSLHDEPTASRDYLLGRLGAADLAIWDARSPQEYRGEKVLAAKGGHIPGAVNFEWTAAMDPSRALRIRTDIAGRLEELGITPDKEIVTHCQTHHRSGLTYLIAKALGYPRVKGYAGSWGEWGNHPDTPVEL

Broadly, the Kd is the free concentration of one partner at which half of the binding sites on the other are occupied at equilibrium, for simple one-to-one binding. A higher Kd goes with a looser complex. In turn, `N[C@@H](CCC(=O)N[C@@H](C[S])C(=O)NCC(=O)O)C(=O)O` [GS^•, glutathione thiyl radical] displayed a Kd at RhdA of roughly 11 µM.

`O=S(O)(O)=S` [thiosulfate] yielded a Kd at RhdA of 0.76 ± 0.01 µM.

The Km is the concentration of substrate that gives half-maximal velocity. In the case of RhdA (Azotobacter vinelandii), in series [1], the Km was 560 ± 110 µM.
